# pIC50: −log10 of the molar value.
# What was measured:
# MM1.S = test: Cytotoxicity against human MM1.S cells measured after 8 days; type: functional, cell-based; conditions: 192 h
# KM12 = test: Cytotoxicity against human KM12 cells measured after 8 days; type: functional, cell-based; conditions: KM12, 192 h
# NCI-H446 = test: Cytotoxicity against human NCI-H446 cells measured after 8 days; type: functional, cell-based; conditions: NCI-H446, 192 h
# ASPC1 = test: Cytotoxicity against human ASPC1 cells measured after 8 days; type: functional, cell-based; conditions: ASPC1, 192 h
# HepG2 = test: Cytotoxicity against human HepG2 cells measured after 8 days; type: functional, cell-based; conditions: HepG2, 192 h
# [1] = Cytotoxicity against human VP229 cells measured after 8 days; type: functional, cell-based; conditions: VP229, 192 h
# [2] = Cytotoxicity against human FA9JTOTERT cells measured after 8 days; type: functional, cell-based; conditions: 192 h
# [3] = Cytotoxicity against human NCE-G 141 cells measured after 8 days; type: functional, cell-based; conditions: NCE-G 141, 192 h
# DMS-273 = test: Cytotoxicity against human DMS-273 cells measured after 8 days; type: functional, cell-based; conditions: DMS-273, 192 h
# 143B = test: Cytotoxicity against human 143B cells measured after 8 days; type: functional, cell-based; conditions: 192 h
# [4] = Cytotoxicity against human HEC-59 cells measured after 8 days; type: functional, cell-based; conditions: HEC-59, 192 h
# [5] = Cytotoxicity against human HEC-108 cells measured after 8 days; type: functional, cell-based; conditions: HEC-108, 192 h
# [6] = Cytotoxicity against human GCH-nu-YS cells measured after 8 days; type: functional, cell-based; conditions: 192 h
# [7] = Cytotoxicity against human UCSD-242L cells measured after 8 days; type: functional, cell-based; conditions: 192 h
# [8] = Cytotoxicity against human KHM-5M cells measured after 8 days; type: functional, cell-based; conditions: 192 h
# SU-DHL-8 = test: Cytotoxicity against human SU-DHL-8 cells measured after 8 days; type: functional, cell-based; conditions: SU-DHL-8, 192 h
# COLO-320-HSR = test: Cytotoxicity against human COLO 320HSR cells measured after 8 days; type: functional, cell-based; conditions: 192 h
# TOV21G = test: Cytotoxicity against human TOV-21G cells measured after 8 days; type: functional, cell-based; conditions: 192 h
# [9] = Cytotoxicity against human CoCM-1 cells measured after 8 days; type: functional, cell-based; conditions: CoCM-1, 192 h
# CAKI-2 = test: Cytotoxicity against human CAKI-2 cells measured after 8 days; type: functional, cell-based; conditions: CAKI-2, 192 h
# SUP-B15 = test: Cytotoxicity against human SUP-B15 cells measured after 8 days; type: functional, cell-based; conditions: SUP-B15, 192 h
# [10] = Cytotoxicity against human 4498-16820 Mel-BR1 cells measured after 8 days; type: functional, cell-based; conditions: 4498-16820 Mel-BR1, 192 h
# [11] = Cytotoxicity against human HCC1010 cells measured after 8 days; type: functional, cell-based; conditions: HCC1010, 192 h
# [12] = target: Serine/threonine-protein kinase PLK1 (Homo sapiens) (UniProt P53350); test: Inhibition of PLK1 (unknown origin) at 1 uM relative to control
# JJN-3 = test: Cytotoxicity against human JJN-3 cells measured after 8 days; type: functional, cell-based; conditions: JJN-3, 192 h
# [13] = Cytotoxicity against human 4498-16820 Mel-BR1 X1 cells measured after 8 days; type: functional, cell-based; conditions: 4498-16820 Mel-BR1 X1, 192 h
# OV-90 = test: Cytotoxicity against human OV-90 cells measured after 8 days; type: functional, cell-based; conditions: OV-90, 192 h
# MC-IXC = test: Cytotoxicity against human MC-IXC cells measured after 8 days; type: functional, cell-based; conditions: 192 h
# SW982 = test: Cytotoxicity against human SW982 cells measured after 8 days; type: functional, cell-based; conditions: SW982, 192 h
# [14] = Cytotoxicity against human OVCA432 cells measured after 8 days; type: functional, cell-based; conditions: OVCA432, 192 h
# CGTH-W-1 = test: Cytotoxicity against human CGTH-W-1 cells measured after 8 days; type: functional, cell-based; conditions: CGTH-W-1, 192 h
# [15] = Cytotoxicity against human HCC850 cells measured after 8 days; type: functional, cell-based; conditions: HCC850, 192 h
# MDA-MB-435 = test: Cytotoxicity against human MDA-MB-435 cells measured after 8 days; type: functional, cell-based; conditions: MDA-MB-435, 192 h
# [16] = Cytotoxicity against human NJG cells measured after 8 days; type: functional, cell-based; conditions: 192 h
# [17] = Cytotoxicity against human MCAS cells measured after 8 days; type: functional, cell-based; conditions: 192 h
# B16-F10 = test: Cytotoxicity against mouse B16-F10 cells measured after 8 days; type: functional, cell-based; conditions: B16-F10, 192 h
# [18] = Cytotoxicity against human SNU-484 cells measured after 8 days; type: functional, cell-based; conditions: SNU-484, 192 h
# NCI-H417 = test: Cytotoxicity against human NCI-H417 cells measured after 8 days; type: functional, cell-based; conditions: NCI-H417, 192 h
# A-431 = test: Cytotoxicity against human A-431 cells measured after 8 days; type: functional, cell-based; conditions: A-431, 192 h
# SK-MEL-30 = test: Cytotoxicity against human SK-MEL-30 cells measured after 8 days; type: functional, cell-based; conditions: SK-MEL-30, 192 h
# RMG-I = test: Cytotoxicity against human RMG-I cells measured after 8 days; type: functional, cell-based; conditions: 192 h
# [19] = Cytotoxicity against human CL-11 cells measured after 8 days; type: functional, cell-based; conditions: CL-11, 192 h
# [20] = Cytotoxicity against human HEC-50B cells measured after 8 days; type: functional, cell-based; conditions: 192 h
# MES-SA = test: Cytotoxicity against human MES-SA cells measured after 8 days; type: functional, cell-based; conditions: 192 h
# KYSE-410 = test: Cytotoxicity against human KYSE-410 cells measured after 8 days; type: functional, cell-based; conditions: KYSE-410, 192 h
# [21] = Cytotoxicity against human NCE-G 120 cells measured after 8 days; type: functional, cell-based; conditions: NCE-G 120, 192 h
# AGS = test: Cytotoxicity against human AGS cells measured after 8 days; type: functional, cell-based; conditions: 192 h
# [22] = Cytotoxicity against human HCC1534 cells measured after 8 days; type: functional, cell-based; conditions: HCC1534, 192 h
# RT-112 = test: Cytotoxicity against human RT-112 cells measured after 8 days; type: functional, cell-based; conditions: RT-112, 192 h
# [23] = Cytotoxicity against human UKE-1 cells measured after 8 days; type: functional, cell-based; conditions: UKE1, 192 h
# [24] = Cytotoxicity against human MMAc cells measured after 8 days; type: functional, cell-based; conditions: 192 h
# [25] = Cytotoxicity against human U-87 MG cells measured after 8 days; type: functional, cell-based, U-87MG ATCC; conditions: 192 h
# KYSE-510 = test: Cytotoxicity against human KYSE-510 cells measured after 8 days; type: functional, cell-based; conditions: KYSE-510, 192 h
# SU-DHL-6 = test: Cytotoxicity against human SU-DHL-6 cells measured after 8 days; type: functional, cell-based; conditions: SU-DHL-6, 192 h
# [26] = Cytotoxicity against human PE/CA-PJ15 cells measured after 8 days; type: functional, cell-based; conditions: PE/CA-PJ15, 192 h
# SK-N-AS = test: Cytotoxicity against human SK-N-AS cells measured after 8 days; type: functional, cell-based; conditions: 192 h
# S-117 = test: Cytotoxicity against human S-117 cells measured after 8 days; type: functional, cell-based; conditions: S-117, 192 h
# SK-MEL3 = test: Cytotoxicity against human SK-MEL3 cells measured after 8 days; type: functional, cell-based; conditions: SK-MEL3, 192 h
# [27] = Cytotoxicity against human JHH-1 cells measured after 8 days; type: functional, cell-based; conditions: JHH1, 192 h
# [28] = Cytotoxicity against human BICR 10 cells measured after 8 days; type: functional, cell-based; conditions: BICR 10, 192 h
# KMS-12-PE = test: Cytotoxicity against human KMS-12-PE cells measured after 8 days; type: functional, cell-based; conditions: 192 h
# Serine/threonine-protein kinase PLK1 (Homo sapiens), sequence (P53350 whole entry): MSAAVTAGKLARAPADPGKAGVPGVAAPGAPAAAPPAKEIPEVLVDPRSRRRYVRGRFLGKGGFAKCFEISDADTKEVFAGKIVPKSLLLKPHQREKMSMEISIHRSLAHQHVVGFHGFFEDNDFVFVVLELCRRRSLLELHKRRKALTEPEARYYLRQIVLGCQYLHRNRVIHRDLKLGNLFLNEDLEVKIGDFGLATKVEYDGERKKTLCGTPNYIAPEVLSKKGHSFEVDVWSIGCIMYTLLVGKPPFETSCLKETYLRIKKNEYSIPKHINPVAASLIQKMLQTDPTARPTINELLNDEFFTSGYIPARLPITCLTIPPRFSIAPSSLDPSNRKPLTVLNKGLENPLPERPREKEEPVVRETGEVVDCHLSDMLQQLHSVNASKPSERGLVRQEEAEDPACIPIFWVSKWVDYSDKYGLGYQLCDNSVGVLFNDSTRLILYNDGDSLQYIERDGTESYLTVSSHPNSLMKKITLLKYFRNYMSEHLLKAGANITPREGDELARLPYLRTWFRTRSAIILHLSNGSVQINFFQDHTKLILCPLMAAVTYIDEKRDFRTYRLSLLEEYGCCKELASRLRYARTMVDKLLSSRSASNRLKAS
smiles,measurement,setting,value
C/C=C/Cn1cc(-c2ccc(C(=O)N3CCOCC3)cc2)c2cc[nH]c2c1=O,pIC50,MM1.S,4.70
same,pIC50,KM12,4.70
same,pIC50,NCI-H446,4.70
same,pIC50,ASPC1,4.70
same,pIC50,HepG2,4.70
same,pIC50,[1],4.70
same,pIC50,[2],4.70
same,pIC50,[3],4.70
same,pIC50,DMS-273,4.70
same,pIC50,143B,4.70
same,pIC50,[4],4.70
same,pIC50,[5],4.70
same,pIC50,[6],4.70
same,pIC50,[7],4.70
same,pIC50,[8],4.70
same,pIC50,SU-DHL-8,4.89
same,pIC50,COLO-320-HSR,4.70
same,pIC50,TOV21G,4.70
same,pIC50,[9],4.70
same,pIC50,CAKI-2,4.70
same,pIC50,SUP-B15,4.70
same,pIC50,[10],4.70
same,pIC50,[11],4.70
same,inhibition,[12],0.9%
same,pIC50,JJN-3,4.91
same,pIC50,[13],4.70
same,pIC50,OV-90,4.70
same,pIC50,MC-IXC,4.70
same,pIC50,SW982,4.70
same,pIC50,[14],4.70
same,pIC50,CGTH-W-1,4.70
same,pIC50,[15],4.70
same,pIC50,MDA-MB-435,4.70
same,pIC50,[16],4.70
same,pIC50,[17],4.70
same,pIC50,B16-F10,4.70
same,pIC50,[18],4.70
same,pIC50,NCI-H417,4.70
same,pIC50,A-431,4.70
same,pIC50,SK-MEL-30,4.70
same,pIC50,RMG-I,4.71
same,pIC50,[19],4.70
same,pIC50,[20],4.70
same,pIC50,MES-SA,4.70
same,pIC50,KYSE-410,4.70
same,pIC50,[21],4.70
same,pIC50,AGS,4.70
same,pIC50,[22],4.70
same,pIC50,RT-112,4.70
same,pIC50,[23],4.91
same,pIC50,[24],4.70
same,pIC50,[25],4.70
same,pIC50,KYSE-510,4.70
same,pIC50,SU-DHL-6,4.92
same,pIC50,[26],4.70
same,pIC50,SK-N-AS,4.70
same,pIC50,S-117,4.70
same,pIC50,SK-MEL3,4.70
same,pIC50,[27],4.70
same,pIC50,[28],4.70
same,pIC50,KMS-12-PE,4.70
C/C=C/Cn1cc(-c2ccc(C(C)(C)O)cc2OC)c2cc[nH]c2c1=O,pIC50,MM1.S,4.70
same,pIC50,KM12,4.70
same,pIC50,NCI-H446,4.70
same,pIC50,ASPC1,4.70
same,pIC50,HepG2,4.70
same,pIC50,[1],4.70
same,pIC50,[2],4.70
same,pIC50,[3],4.70
same,pIC50,DMS-273,4.70
same,pIC50,143B,4.76
same,pIC50,[4],4.70
same,pIC50,[5],4.70
same,pIC50,[6],4.70
same,pIC50,[7],4.70
same,pIC50,[8],4.70
same,pIC50,SU-DHL-8,5.49
same,pIC50,COLO-320-HSR,4.70
same,pIC50,TOV21G,4.70
same,pIC50,[9],4.70
same,pIC50,CAKI-2,4.70
same,pIC50,SUP-B15,4.70
same,pIC50,[10],4.81
same,pIC50,[11],4.70
same,inhibition,[12],1%
same,pIC50,JJN-3,4.75
same,pIC50,[13],4.70
same,pIC50,OV-90,4.70
same,pIC50,MC-IXC,4.70
same,pIC50,SW982,4.70
same,pIC50,[14],4.70
same,pIC50,CGTH-W-1,4.70
same,pIC50,[15],4.70
same,pIC50,MDA-MB-435,4.96
same,pIC50,[16],4.70
same,pIC50,[17],4.70
same,pIC50,B16-F10,4.70
same,pIC50,[18],4.70
same,pIC50,NCI-H417,4.70
same,pIC50,A-431,4.70
same,pIC50,SK-MEL-30,4.70
same,pIC50,RMG-I,4.70
same,pIC50,[19],4.70
same,pIC50,[20],4.70
same,pIC50,MES-SA,5.15
same,pIC50,KYSE-410,4.70
same,pIC50,[21],4.70
same,pIC50,AGS,4.70
same,pIC50,[22],4.70
same,pIC50,RT-112,4.70
same,pIC50,[23],4.70
same,pIC50,[24],4.70
same,pIC50,[25],4.70
same,pIC50,KYSE-510,4.70
same,pIC50,SU-DHL-6,4.95
same,pIC50,[26],4.70
same,pIC50,SK-N-AS,4.70
same,pIC50,S-117,4.70
same,pIC50,SK-MEL3,4.70
same,pIC50,[27],4.70
same,pIC50,[28],4.70
same,pIC50,KMS-12-PE,4.70

# Source: ChEMBL document CHEMBL5260810, “Inhibition of bromodomain-containing protein 9 for the prevention of epigenetically-defined drug resistance” (Bioorg Med Chem Lett, 2017)
